# Source: US12435032B2, “L-γ-methyleneglutamine compounds and methods of use” (University of Mississippi, priority 2019, dated 2025)
# Read-outs that look alike come from different tables or passages of the source.
# Key:
# [1] = system: triple-negative MDA-MB-231 breast cancer cells; assay: cells; conditions: Homo sapiens
# [2] = system: SK-BR-3 breast cancer cells; assay: Cytotoxicity (cell death, propidium iodide) in SK-BR-3 cells; assay type: cell-based; conditions: for EC50: Homo sapiens, dose-response 0.32-320 μM
# [3] = system: MCF-7 (ER+/PR+/HER2−) breast cancer cells; assay: Growth inhibition of MCF-7 cells (Hoechst 33342 fluorescence vs non-treated wells); assay type: cell-based; conditions: dose-response 0.32-320 μM
# Procedure: (§1) Olaparib was chosen because it is one of a few FDA-approved chemotherapeutics for triple-negative breast cancer.
# (§2) Cells were incubated for 15 minutes at 37° C.
# [4] = system: SK-BR-3 (ER−/PR−/HER2+) breast cancer cells; assay: Growth inhibition of SK-BR-3 cells; assay type: cell-based; conditions: Homo sapiens, dose-response 0.32-320 μM
# Procedure: as §1, §2
# [5] = system: MCF-10A non-cancerous breast cells; assay: Growth inhibition of MCF-10A cells (negative control line); assay type: cell-based; conditions: Homo sapiens, dose-response 0.32-320 μM
# Procedure: as §1, §2
# [6] = system: MCF-7 breast cancer cells; assay: Cytotoxicity (cell death, propidium iodide) in MCF-7 cells; assay type: cell-based; conditions: for EC50: Homo sapiens, MCF7
# [7] = system: triple-negative MDA-MB-231 breast cancer cells; assay: Growth inhibition of MDA-MB-231 cells; assay type: cell-based; conditions: for IC50: Homo sapiens; for IC50 / Growth Inhibition IC50: dose-response 0.32-320 μM
# Procedure: as §1, §2
# [8] = Cytotoxicity (cell death, propidium iodide) in MCF-10A cells; assay type: cell-based; conditions: human, MCF-10A non-cancerous breast cells
# Procedure: To assess the selectivity of cytotoxicity for cancer cells, all drugs and compounds were screened against MCF-10A, non-cancerous breast cells.
# as §2
# [9] = MDA-MB-231, 24 h, read-out: Cytotoxicity EC50
# [10] = MDA-MB-231, 72 h, read-out: Cytotoxicity EC50
# [11] = SK-BR-3, 72 h / after the first 24 h
# [12] = Homo sapiens, MCF7, 24 h, MCF-7, 24 h exposure
# [13] = Homo sapiens, MCF7, 72 h, MCF-7, 72 h exposure
# [14] = MCF-7, 24 h exposure, dose-response 0.32-320 μM, read-out: Cytotoxicity EC50
# [15] = MCF-7, 72 h exposure, dose-response 0.32-320 μM, read-out: Cytotoxicity EC50
# [16] = MDA-MB-231, read-out: cytotoxic EC50
smiles,measurement,setting,value
"C=C(C[C@H](N)C(=O)O)C(=O)NC1CC1 [Compound 7, (S)-2-amino-4-(cyclopropylcarbamoyl) pent-4-enoic acid]",EC50,[1]; [9],933 µM
same,EC50,[1]; [10],> 1000 µM
same,EC50,"[2]; SK-BR-3, 24 h exposure",272 µM
same,EC50,"[2]; SK-BR-3, 72 h exposure",> 1000 µM
same,cytotoxicity EC50,[2]; [11],much reduced toxicity
same,IC50,[3]; [12],231 µM
same,IC50,[3]; [13],416 µM
same,Growth Inhibition IC50,"[3]; MCF-7, 72 h exposure",significantly less potent than tamoxifen
same,IC50,"[4]; SK-BR-3, 24 h exposure",314 µM
same,IC50,"[4]; SK-BR-3, 72 h exposure",0.6 µM
same,IC50,[5]; 24 h exposure,> 1000 µM
same,IC50,[5]; 72 h exposure,> 1000 µM
same,EC50,[6]; [14],64.1 µM
same,EC50,"[6]; MCF-7, 24 h exposure, read-out: EC50 for cytotoxicity",64 µM
same,EC50,[6]; [15],508 µM
same,IC50,"[7]; MDA-MB-231, 24 h exposure",649 µM
same,IC50,"[7]; MDA-MB-231, 72 h exposure",922 µM
same,Growth Inhibition IC50,"[7]; MDA-MB-231, 72 h exposure",poorer potency than olaparib
same,EC50 at 24 h,[8]; 24 h exposure,> 1000 µM
same,EC50 at 24 h,[8]; head prints 24 h,> 1000 µM
"C=C(C[C@H](N)C(=O)O)C(=O)N1CCCCC1 [Compound 8, (S)-2-amino-4-(piperidine-1-carbonyl) pent-4-enoic acid]",EC50,[1]; [9],> 1000 µM
same,EC50,[1]; [10],> 1000 µM
same,EC50,"[2]; SK-BR-3, 24 h exposure",0.1 µM
same,EC50,"[2]; SK-BR-3, 72 h exposure",> 1000 µM
same,cytotoxicity EC50,[2]; [11],much reduced toxicity
same,IC50,[3]; [12],434 µM
same,IC50,[3]; [13],606 µM
same,Growth Inhibition IC50,"[3]; MCF-7, 72 h exposure",significantly less potent than tamoxifen
same,IC50,"[4]; SK-BR-3, 24 h exposure",133 µM
same,IC50,"[4]; SK-BR-3, 72 h exposure",0.6 µM
same,IC50,[5]; 24 h exposure,> 1000 µM
same,IC50,[5]; 72 h exposure,> 1000 µM
same,EC50,[6]; [14],197 µM
same,EC50,[6]; [15],198 µM
same,EC50 for MCF-7 cytotoxicity,"[6]; MCF-7, 72 h exposure",did not change
same,IC50,"[7]; MDA-MB-231, 24 h exposure",685 µM
same,IC50,"[7]; MDA-MB-231, 72 h exposure",813 µM
same,Growth Inhibition IC50,"[7]; MDA-MB-231, 24 h exposure",poorer potency than both tamoxifen or olaparib
same,Growth Inhibition IC50,"[7]; MDA-MB-231, 72 h exposure",poorer potency than olaparib
same,EC50 at 24 h,[8]; 24 h exposure,> 1000 µM
same,EC50 at 24 h,[8]; head prints 24 h,> 1000 µM
"C=C(C[C@H](N)C(=O)O)C(=O)Nc1ccc(F)cc1 [Compound 9, (S)-2-amino-4-((4-fluorophenyl)carbamoyl) pent-4-enoic acid]",EC50,[1]; [9],> 1000 µM
same,EC50,[1]; [10],450 µM
same,EC50,"[2]; SK-BR-3, 24 h exposure",0.2 µM
same,EC50,"[2]; SK-BR-3, 72 h exposure",0.1 µM
same,cytotoxicity EC50,"[2]; SK-BR-3, at 24 or 72 h",commensurate EC50's at 24 or 72 h
same,IC50,[3]; [12],414 µM
same,IC50,[3]; [13],76 µM
same,IC50,"[4]; SK-BR-3, 24 h exposure",11.4 µM
same,IC50,"[4]; SK-BR-3, 72 h exposure",4.7 µM
same,IC50,[5]; 24 h exposure,> 1000 µM
same,IC50,[5]; 72 h exposure,> 1000 µM
same,EC50,[6]; [14],161 µM
same,EC50,[6]; [15],2.3 µM
same,EC50 for MCF-7 cytotoxicity,"[6]; MCF-7, 72 h exposure",significantly lower than tamoxifen
same,IC50,"[7]; MDA-MB-231, 24 h exposure",652 µM
same,IC50,"[7]; MDA-MB-231, 72 h exposure",419 µM
same,growth inhibition potency compared with olaparib,"[7]; MDA-MB-231, throughout testing (24 h and 72 h)",equipotent to olaparib
same,EC50 at 24 h,[8]; 24 h exposure,> 1000 µM
same,EC50 at 24 h,[8]; head prints 24 h,> 1000 µM
"C=C(C[C@H](N)C(=O)O)C(=O)Nc1ccc(Cl)cc1 [Compound 10, (S)-2-amino-4-((4-chlorophenyl)carbamoyl) pent-4-enoic acid]",EC50,[1]; [9],> 1000 µM
same,EC50,[1]; [10],> 1000 µM
same,EC50,"[2]; SK-BR-3, 24 h exposure",262 µM
same,EC50,"[2]; SK-BR-3, 72 h exposure",> 1000 µM
same,cytotoxicity EC50,[2]; [11],much reduced toxicity
same,IC50,[3]; [12],397 µM
same,IC50,[3]; [13],171 µM
same,IC50,"[4]; SK-BR-3, 24 h exposure",78.7 µM
same,IC50,"[4]; SK-BR-3, 72 h exposure",4 µM
same,IC50,[5]; 24 h exposure,> 1000 µM
same,IC50,[5]; 72 h exposure,> 1000 µM
same,EC50,[6]; [14],205 µM
same,EC50,[6]; [15],93.2 µM
same,IC50,"[7]; MDA-MB-231, 24 h exposure",867 µM
same,IC50,"[7]; MDA-MB-231, 72 h exposure",712 µM
same,Growth Inhibition IC50,"[7]; MDA-MB-231, 24 h exposure",poorer potency than both tamoxifen or olaparib
same,Growth Inhibition IC50,"[7]; MDA-MB-231, 72 h exposure",poorer potency than olaparib
same,EC50 at 24 h,[8]; 24 h exposure,> 1000 µM
same,EC50 at 24 h,[8]; head prints 24 h,> 1000 µM
"O=C(c1cc(Cc2n[nH]c(=O)c3ccccc23)ccc1F)N1CCN(C(=O)C2CC2)CC1 [Olaparib, reference compound]",EC50,[1]; [9],61.2 µM
same,EC50,[1]; [10],97.1 µM
same,EC50,[1]; [16],≤ 100 µM
same,EC50,"[2]; SK-BR-3, 24 h exposure",> 1000 µM
same,EC50,"[2]; SK-BR-3, 72 h exposure",0.1 µM
same,cytotoxicity,"[2]; SK-BR-3, 24 h exposure",neither tamoxifen nor olaparib were cytotoxic
same,IC50,[3]; [12],> 1000 µM
same,IC50,"[3]; MCF-7, 72 h exposure",108 µM
same,IC50,"[4]; SK-BR-3, 24 h exposure",1.6 µM
same,IC50,"[4]; SK-BR-3, 72 h exposure",1.1 µM
same,IC50,[5]; 24 h exposure,> 1000 µM
same,IC50,[5]; 72 h exposure,> 1000 µM
same,EC50,[6]; [14],> 1000 µM
same,EC50,[6]; [15],26.5 µM
same,EC50 for cytotoxicity,"[6]; MCF-7, 24 h exposure",neither tamoxifen nor olaparib were cytotoxic
same,EC50 for MCF-7 cytotoxicity,"[6]; MCF-7, 72 h exposure",micromolar EC50
same,IC50,"[7]; MDA-MB-231, 24 h exposure",161 µM
same,IC50,"[7]; MDA-MB-231, 72 h exposure",154 µM
same,EC50 at 24 h,[8]; 24 h exposure,511 µM
same,EC50 at 24 h,[8]; head prints 24 h,> 1000 µM
same,EC50 at 24 h,[8]; within the first 24 h,268 to 511 µM
"CC/C(=C(\c1ccccc1)c1ccc(OCCN(C)C)cc1)c1ccccc1 [Tamoxifen, reference compound]",EC50,[1]; [9],26 µM
same,EC50,[1]; [10],30.9 µM
same,EC50,[1]; [16],≤ 100 µM
same,EC50,"[2]; SK-BR-3, 24 h exposure",> 1000 µM
same,EC50,"[2]; SK-BR-3, 72 h exposure",0.3 µM
same,cytotoxicity,"[2]; SK-BR-3, 24 h exposure",neither tamoxifen nor olaparib were cytotoxic
same,EC50,[6]; [14],> 1000 µM
same,EC50 for cytotoxicity,"[6]; MCF-7, 24 h exposure",neither tamoxifen nor olaparib were cytotoxic
same,EC50 for MCF-7 cytotoxicity,"[6]; MCF-7, 72 h exposure",micromolar EC50
same,EC50 at 24 h,[8]; 24 h exposure,268 µM
same,EC50 at 24 h,[8]; head prints 24 h,> 1000 µM
same,EC50 at 24 h,[8]; within the first 24 h,268 to 511 µM
